Biological target: Glutamate receptor ionotropic, NMDA 2B (Homo sapiens, UniProt Q05586+Q13224)
Test: Standard cell-based calcium flux assay: NMDA receptors are ion channels that are highly permeable to Ca2+ ions, rendering it possible to monitor NMDA receptor function using cell-based calcium flux assay. In this assay, co-agonists glutamate and glycine are added to cells heterologously expressing human GluN1/GluN2B NMDA receptors to initiate cellular Ca2+ influx. The time course of the changes in intracellular calcium is measured using a fluorescent dye and a FLIPR (Fluorometric Imaging Plate Reader) device.Twenty four hours before measurements, the expression of the NMDA receptors in the stable cell line is induced with Tet-On inducible system in the presence of a non-selective NMDA receptor blocker. On the day of the experiment, cell culture media is carefully washed and the cells are loaded with Calcium 5 Dye Kit (Molecular Devices) in dye loading buffer containing 137 mM NaCl, 4 mM KCl, 2 mM CaCl2, 0.5 mM MgCl2 (standard assay) or 1.5 mM MgCl2 (HTS assay), 10 mM HEPES and 5 mM D-glucose; pH 7.4. […]

Sequence of Glutamate receptor ionotropic, NMDA 2B (Q13224 whole entry, one chain of several): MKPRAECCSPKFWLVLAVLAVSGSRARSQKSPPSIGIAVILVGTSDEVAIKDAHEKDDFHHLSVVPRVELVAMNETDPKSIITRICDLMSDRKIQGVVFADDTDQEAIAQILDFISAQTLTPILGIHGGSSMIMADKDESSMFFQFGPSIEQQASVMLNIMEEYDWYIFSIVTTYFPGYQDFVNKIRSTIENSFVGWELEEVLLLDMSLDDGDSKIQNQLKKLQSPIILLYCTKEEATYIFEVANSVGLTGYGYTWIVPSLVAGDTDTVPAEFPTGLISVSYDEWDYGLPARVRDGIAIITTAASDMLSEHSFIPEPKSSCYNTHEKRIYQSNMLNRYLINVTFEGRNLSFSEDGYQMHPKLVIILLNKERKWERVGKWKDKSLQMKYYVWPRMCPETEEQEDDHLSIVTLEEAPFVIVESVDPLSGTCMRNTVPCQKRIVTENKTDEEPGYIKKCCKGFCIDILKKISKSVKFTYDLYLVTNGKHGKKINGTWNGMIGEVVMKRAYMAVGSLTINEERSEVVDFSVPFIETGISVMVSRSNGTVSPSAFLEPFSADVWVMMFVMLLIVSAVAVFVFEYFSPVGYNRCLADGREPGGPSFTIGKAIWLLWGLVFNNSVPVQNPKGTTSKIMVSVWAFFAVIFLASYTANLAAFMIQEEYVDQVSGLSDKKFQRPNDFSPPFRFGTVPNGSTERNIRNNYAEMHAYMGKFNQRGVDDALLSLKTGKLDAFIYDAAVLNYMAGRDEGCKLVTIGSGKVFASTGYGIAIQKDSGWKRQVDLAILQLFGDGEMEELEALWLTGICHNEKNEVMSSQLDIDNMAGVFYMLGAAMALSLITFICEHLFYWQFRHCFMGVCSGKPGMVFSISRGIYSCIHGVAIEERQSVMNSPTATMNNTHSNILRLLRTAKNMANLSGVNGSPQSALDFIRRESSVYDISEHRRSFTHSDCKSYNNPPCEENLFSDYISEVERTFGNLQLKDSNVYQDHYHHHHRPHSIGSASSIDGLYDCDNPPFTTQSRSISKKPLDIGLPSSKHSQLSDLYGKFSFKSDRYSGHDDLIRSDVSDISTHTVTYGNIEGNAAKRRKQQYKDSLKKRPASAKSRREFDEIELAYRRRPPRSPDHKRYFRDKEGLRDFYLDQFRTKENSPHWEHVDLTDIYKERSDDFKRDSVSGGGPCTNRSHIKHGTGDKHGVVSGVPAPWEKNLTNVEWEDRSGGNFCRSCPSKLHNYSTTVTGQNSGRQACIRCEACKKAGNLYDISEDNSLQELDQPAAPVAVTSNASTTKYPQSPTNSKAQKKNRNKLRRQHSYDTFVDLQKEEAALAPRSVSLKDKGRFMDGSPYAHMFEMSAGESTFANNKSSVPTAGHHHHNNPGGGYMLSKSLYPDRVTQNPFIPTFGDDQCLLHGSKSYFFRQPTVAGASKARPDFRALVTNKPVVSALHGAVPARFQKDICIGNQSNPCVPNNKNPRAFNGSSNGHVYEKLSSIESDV

Cn1c(=O)n(CC(=O)N2CCC2)c2cc(-c3cc(OCCF)cc(C(F)(F)F)c3)cnc21
IC50: 1290 nM

Source: ChEMBL document CHEMBL5727632, “Substituted 1H-imidazo[4,5-b]pyridin-2(3H)-ones and their use as GluN2B receptor modulators” (2020)
